Assay results from patent publication US4156777A, “Process for producing glucopyranose-nitrosourea compounds and novel compounds included therein” (Tokyo Tanabe Company, Limited, priority 1977, dated 1979).
Values after ≈ are worked out from the molar mass of the structure shown. Like-named read-outs stand apart in the source and are kept apart here.

What was measured:
[1] = Effect on respiration, blood pressure, heart rate and electrocardiogram; assay type: in vivo, Beagle dogs; settings: dog, in vivo, iv; injected into brachial veins, anesthetized Beagle dogs; read-out: maximum dosage not effected on respiration, blood pressure, heart rate and electrocardiogram
Description: Beagle dogs of both sexes weighing about 10 kg were anesthetized with pentobarbital sodium (30 mg/kg, i.v.), and immobilized in the supine position. Test compounds dissolved in physiological saline solution were injected into the brachial veins of the animals and the arteries at cannulated positions were treated with heparin sodium as anticoagulant.
The respiration rate of each animal was estimated with a respirometer (Nihonkohden, RP-3) through a tracheal cannula, the blood pressure with an electro-haemodynamometer (Nihonkohden, MP-4T) attached surgically to the femoral artery, and the heart rate with a pulse-rate tachometer (Nihonkohden, RT-2) through the trigger pulse of the blood pressure.

[2] = cited from earlier work
leukemia L-1210 = experiment: Antitumor activity against leukemia L-1210 implanted in BDF1 mice (ILS, 60 days survivors); assay type: in vivo
Source text: Test compounds were given to BDF1 mice 24 hrs after implantation of 10^6 cells of leukemia L-1210 in each animal, through single intraperitoneal administration, intraperitoneal administration for 5 successive days, single oral administration or oral administration for 5 successive days, whereupon the increase in life span (referred to as "ILS") and number of 60 days survivors of test animals were estimated, said test of antitumor activity being that according to the method of the National Cancer Center, Tokyo [A. Hoshi et al: Farmashia, 9 (1973), 464]. In the tests, the compounds were dissolved in physiological saline solution just before administration.
^a i.p.: intraperitoneal administration p.o: oral administration
D1 : single administration D1~5 : administration for 5
^b percentage calculated from mean survival time over control
^c survivors/six animals

Acute toxicity (LD50) = assay type: in vivo, male Wister rats; settings: rat, in vivo, after 1 week
Description: Test compounds were dissolved in physiological saline solution just before their dosage and administered to male Wister rats, intraperitoneally, intravenously and orally. After 1 week, the LD50 of each compound was calculated from the mortality of the test animals by the Lichfield-Wilcoxon Method.
i.v.: intravenous administration

[3] = Solubility in water at 25° C.; assay type: physicochemical; settings: amount soluble in 1 ml water at 25° C.
[4] = Diabetogenic activity (blood glucose concentration after intravenous administration); assay type: in vivo, male Wister rats
Description: 40-96 mg/kg of the test compounds were administered intravenously to starved male Wister rats weighing 240-260 g each, and the blood glucose concentrations of the test animals were estimated by the glucose exidase method [L. L. Saloman et al: Anal. Chem., 31 (1959), 453], in which test the compounds were dissolved in physiological saline solution just before administration. […]

[5] = known compounds, generally seen
[6] = 40 mg/kg i.v., 0 hr after treatment
[7] = 40 mg/kg i.v., 2 hr after treatment
[8] = 40 mg/kg i.v., 4 hr after treatment
[9] = 40 mg/kg i.v., 7 hr after treatment
[10] = 40 mg/kg i.v., 10 hr after treatment
[11] = 40 mg/kg i.v., 24 hr after treatment
[12] = 40 mg/kg i.v., 48 hr after treatment
[13] = 60 mg/kg i.v., 0 hr after treatment
[14] = 60 mg/kg i.v., 2 hr after treatment
[15] = 60 mg/kg i.v., 4 hr after treatment
[16] = 60 mg/kg i.v., 7 hr after treatment
[17] = 60 mg/kg i.v., 10 hr after treatment
[18] = 60 mg/kg i.v., 24 hr after treatment
[19] = 60 mg/kg i.v., 48 hr after treatment

CO[C@H]1O[C@H](CO)[C@@H](O)[C@H](O)[C@H]1NC(=O)N(CCCl)N=O [Example 2MCαG, 1-(2-chloroethyl)-3-(methyl α-D-glucopyranos-2-yl)-1-nitrosourea]
NOAEL [1]: 30 mg/kg | diabetogenic activity, decreasing order [2, 5]: SZ>DCNU>GANU> 2MCαG≈6MCαG | ILS (leukemia L-1210; 0.5 mg/kg/day, i.p. D1~5): 15% | ILS (leukemia L-1210; 1.0 mg/kg/day, i.p. D1~5): 48% | ILS (leukemia L-1210; 2.0 mg/kg/day, i.p. D1~5): > 249% | Survivors (60 days) (leukemia L-1210; 2.0 mg/kg/day, i.p. D1~5): 1/6 | ILS (leukemia L-1210; 2.0 mg/kg/day, p.o. D1~5): > 143% | Survivors (60 days) (leukemia L-1210; 2.0 mg/kg/day, p.o. D1~5): 1/6 | ILS (leukemia L-1210; 3.2 mg/kg/day, i.p. D1~5): > 394% | Survivors (60 days) (leukemia L-1210; 3.2 mg/kg/day, i.p. D1~5): 3/6 | ILS (leukemia L-1210; 3.2 mg/kg/day, p.o. D1~5): > 246% | Survivors (60 days) (leukemia L-1210; 3.2 mg/kg/day, p.o. D1~5): 2/6 | ILS (leukemia L-1210; 4.0 mg/kg/day, i.p. D1~5): > 349% | Survivors (60 days) (leukemia L-1210; 4.0 mg/kg/day, i.p. D1~5): 2/6 | ILS (leukemia L-1210; 6.3 mg/kg/day, i.p. D1): > 128% | ILS (leukemia L-1210; 6.3 mg/kg/day, i.p. D1~5): > 198% | Survivors (60 days) (leukemia L-1210; 6.3 mg/kg/day, i.p. D1~5): 1/6 | ILS (leukemia L-1210; 6.3 mg/kg/day, p.o. D1~5): > 380% | Survivors (60 days) (leukemia L-1210; 6.3 mg/kg/day, p.o. D1~5): 3/6 | ILS (leukemia L-1210; 8.0 mg/kg/day, i.p. D1): > 432% | Survivors (60 days) (leukemia L-1210; 8.0 mg/kg/day, i.p. D1): 3/6 | ILS (leukemia L-1210; 10.0 mg/kg/day, i.p. D1): > 717% | Survivors (60 days) (leukemia L-1210; 10.0 mg/kg/day, i.p. D1): 6/6 | ILS (leukemia L-1210; 10.0 mg/kg/day, i.p. D1~5): > 190% | Survivors (60 days) (leukemia L-1210; 10.0 mg/kg/day, i.p. D1~5): 1/6 | ILS (leukemia L-1210; 12.5 mg/kg/day, i.p. D1~5): > 160% | Survivors (60 days) (leukemia L-1210; 12.5 mg/kg/day, i.p. D1~5): 1.6 survivors/six animals | ILS (leukemia L-1210; 12.5 mg/kg/day, p.o. D1~5): > 211% | Survivors (60 days) (leukemia L-1210; 12.5 mg/kg/day, p.o. D1~5): 2/6 | ILS (leukemia L-1210; 20.0 mg/kg/day, i.p. D1): > 717% | Survivors (60 days) (leukemia L-1210; 20.0 mg/kg/day, i.p. D1): 6/6 | ILS (leukemia L-1210; 20.0 mg/kg/day, i.p. D1~5): 58% | ILS (leukemia L-1210; 25.0 mg/kg/day, i.p. D1): > 539% | Survivors (60 days) (leukemia L-1210; 25.0 mg/kg/day, i.p. D1): 4/6 | LD50 at 168 h (Acute toxicity (LD50); ip): 48 mg/kg | LD50 at 168 h (Acute toxicity (LD50); po): 49 mg/kg | solubility [3]: 45 mg/mL (≈ 137 mM) | Blood Glucose Concentration [4, 6]: 71.0 mg/dL | Blood Glucose Concentration [4, 7]: 73.5 mg/dL | Blood Glucose Concentration [4, 8]: 70.6 mg/dL | Blood Glucose Concentration [4, 9]: 72.3 mg/dL | Blood Glucose Concentration [4, 10]: 68.3 mg/dL | Blood Glucose Concentration [4, 11]: 72.7 mg/dL | Blood Glucose Concentration [4, 12]: 70.4 mg/dL | Blood Glucose Concentration [4, 13]: 70.4 mg/dL | Blood Glucose Concentration [4, 14]: 74.2 mg/dL | Blood Glucose Concentration [4, 15]: 68.2 mg/dL | Blood Glucose Concentration [4, 16]: 68.7 mg/dL | Blood Glucose Concentration [4, 17]: 67.5 mg/dL | Blood Glucose Concentration [4, 18]: 73.8 mg/dL | Blood Glucose Concentration [4, 19]: 70.8 mg/dL | blood glucose concentrations versus control, in words ([4]; i.v., rats): substantially the same blood glucose concentrations as that in the control

O=NN(CCCl)C(=O)N[C@@H]1O[C@H](CO)[C@@H](O)[C@H](O)[C@H]1O [GANU, 1-(2-chloroethyl)-3-(β-D-glucopyranosyl)-1-nitrosourea]
NOAEL [1]: 10 mg/kg | diabetogenic activity, decreasing order [2, 5]: SZ>DCNU>GANU> 2MCαG≈6MCαG | ILS (leukemia L-1210; 1.0 mg/kg/day, i.p. D1): 42% | ILS (leukemia L-1210; 5.0 mg/kg/day, i.p. D1): > 280% | Survivors (60 days) (leukemia L-1210; 5.0 mg/kg/day, i.p. D1): 2/6 | ILS (leukemia L-1210; 5.0 mg/kg/day, p.o. D1): 5% | ILS (leukemia L-1210; 10.0 mg/kg/day, i.p. D1): > 295% | Survivors (60 days) (leukemia L-1210; 10.0 mg/kg/day, i.p. D1): 2/6 | ILS (leukemia L-1210; 10.0 mg/kg/day, p.o. D1): 45% | ILS (leukemia L-1210; 15.0 mg/kg/day, i.p. D1): > 507% | Survivors (60 days) (leukemia L-1210; 15.0 mg/kg/day, i.p. D1): 5/6 | ILS (leukemia L-1210; 20.0 mg/kg/day, i.p. D1): > 518% | Survivors (60 days) (leukemia L-1210; 20.0 mg/kg/day, i.p. D1): 5/6 | ILS (leukemia L-1210; 20.0 mg/kg/day, p.o. D1): 75% | ILS (leukemia L-1210; 25.0 mg/kg/day, i.p. D1): > 472% | Survivors (60 days) (leukemia L-1210; 25.0 mg/kg/day, i.p. D1): 5/6 | ILS (leukemia L-1210; 25.0 mg/kg/day, p.o. D1): 110% | ILS (leukemia L-1210; 35.0 mg/kg/day, p.o. D1): 70% | LD50 at 168 h (Acute toxicity (LD50); ip): 24 mg/kg | LD50 at 168 h (Acute toxicity (LD50); iv): 10 mg/kg | LD50 at 168 h (Acute toxicity (LD50); po): 21 mg/kg | Blood Glucose Concentration [4, 6]: 67.8 mg/dL | Blood Glucose Concentration [4, 7]: 70.4 mg/dL | Blood Glucose Concentration [4, 8]: 71.3 mg/dL | Blood Glucose Concentration [4, 9]: 94.4 mg/dL | Blood Glucose Concentration [4, 10]: 98.2 mg/dL | Blood Glucose Concentration [4, 11]: 120.3 mg/dL | Blood Glucose Concentration [4, 12]: 186.5 mg/dL | Blood Glucose Concentration [4, 13]: 67.3 mg/dL | Blood Glucose Concentration [4, 14]: 71.2 mg/dL | Blood Glucose Concentration [4, 15]: 72.6 mg/dL | Blood Glucose Concentration [4, 16]: 95.4 mg/dL | Blood Glucose Concentration [4, 17]: 105.9 mg/dL | Blood Glucose Concentration [4, 18]: 125.5 mg/dL | Blood Glucose Concentration [4, 19]: 189.8 mg/dL

CN(N=O)C(=O)N[C@H]1C(O)O[C@H](CO)[C@@H](O)[C@@H]1O (stereo partly drawn) [SZ, 3-(d-glucopyranos-2-yl)-1-methyl-1-nitrosourea]
diabetogenic activity, decreasing order ([2]; rat, in vivo): SZ>DCNU>GANU> 2MCαG≈6MCαG
